As usually defined, the inhibition is the drop in the measured response relative to a control, in per cent. A higher inhibition goes with a response far below the control.

inhibition, Kv1.5% inhibition and IC50 data for 26 compounds are collected here from patent US7507730B2, “Substituted pyrazolo[1,5-a]pyrimidines as potassium channel activators” (Bristol-Myers Squibb Company, priority 2005, dated 2009).

Kv1.5, sequence (P22460 whole entry): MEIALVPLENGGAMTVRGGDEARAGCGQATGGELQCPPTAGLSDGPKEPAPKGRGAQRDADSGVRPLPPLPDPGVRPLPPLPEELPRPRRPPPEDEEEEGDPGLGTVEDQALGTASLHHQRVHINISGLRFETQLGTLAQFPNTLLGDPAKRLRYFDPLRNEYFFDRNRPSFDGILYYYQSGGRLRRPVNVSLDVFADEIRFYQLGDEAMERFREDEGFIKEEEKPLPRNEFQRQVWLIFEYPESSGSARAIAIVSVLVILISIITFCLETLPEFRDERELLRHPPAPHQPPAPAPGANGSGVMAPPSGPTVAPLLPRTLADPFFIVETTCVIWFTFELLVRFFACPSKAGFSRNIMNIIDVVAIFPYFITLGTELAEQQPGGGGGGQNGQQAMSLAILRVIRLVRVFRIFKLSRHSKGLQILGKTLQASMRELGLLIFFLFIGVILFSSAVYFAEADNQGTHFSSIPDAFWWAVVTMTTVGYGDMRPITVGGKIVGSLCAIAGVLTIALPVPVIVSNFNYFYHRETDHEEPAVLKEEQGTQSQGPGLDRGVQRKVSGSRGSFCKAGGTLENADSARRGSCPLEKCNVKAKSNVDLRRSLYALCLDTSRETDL

In the first test the target is Kv1.5 (Homo sapiens, UniProt P22460). Nature of the test: Kv1.5 inhibition assay (IKur inhibitor assay per cited references). The test is classed as cell-based. The settings on record: at 0.3 μM. An excerpt:
Assays to determine the degree of activity of a compound as an IKur inhibitor are well known in the art and are described in references such as J. Gen. Physiol. Apr.; 101 (4):513-43, and Br. J. Pharmacol. 1995 May; 115(2):267-74.
Take `CC1=C(S(=O)(=O)N2CCCC2)C(c2ccc(Cl)c(Cl)c2)n2nc(C(F)(F)F)cc2N1` (single isomer, unassigned) [Example 59 Isomer 1, 7-(3,4-Dichlorophenyl)-5-methyl-6-(pyrrolidin-1-ylsulfonyl)-2-(trifluoromethyl)-4,7-dihydropyrazolo[1,5-a]pyrimidine]: the inhibition at 0.3 µM came to 89.8%.

`CC1=C(S(=O)(=O)N2CCCC2)C(c2ccc(Cl)c(Cl)c2)n2nc(C(F)(F)F)cc2N1` (single isomer, unassigned) [Example 59 Isomer 2, 7-(3,4-Dichlorophenyl)-5-methyl-6-(pyrrolidin-1-ylsulfonyl)-2-(trifluoromethyl)-4,7-dihydropyrazolo[1,5-a]pyrimidine] yielded a Kv1.5% inhibition of 86.4%.

Regarding `CCN(CC)S(=O)(=O)C1=C(C)Nc2cc(C)nn2C1c1ccc(Cl)c(Cl)c1` (single isomer, unassigned) [Example 61 Isomer 1, 7-(3,4-Dichlorophenyl)-N,N-diethyl-2,5-dimethyl-4,7-dihydropyrazolo[1,5-a]pyrimidine-6-sulfonamide], the Kv1.5% inhibition is reported as 90.5%.

With `CCN(CC)S(=O)(=O)C1=C(C)Nc2cc(C)nn2C1c1ccc(Cl)c(Cl)c1` (single isomer, unassigned) [Example 61 Isomer 2, 7-(3,4-Dichlorophenyl)-N,N-diethyl-2,5-dimethyl-4,7-dihydropyrazolo[1,5-a]pyrimidine-6-sulfonamide], the Kv1.5% inhibition worked out at 42.3%.

Turning to `CC1=C(S(=O)(=O)N(C)c2ccccc2)C(c2ccc(Cl)c(Cl)c2)n2nc(C(F)(F)F)cc2N1` (single isomer, unassigned) [Example 63 Isomer 1, 7-(3,4-Dichlorophenyl)-N,5-dimethyl-N-phenyl-2-(trifluoromethyl)-4,7-dihydropyrazolo[1,5-a]pyrimidine-6-sulfonamide], at 0.3 µM the inhibition was 30%.

`CC1=C(S(=O)(=O)N(C)c2ccccc2)C(c2ccc(Cl)c(Cl)c2)n2nc(C(F)(F)F)cc2N1` (single isomer, unassigned) [Example 63 Isomer 2, 7-(3,4-Dichlorophenyl)-N,5-dimethyl-N-phenyl-2-(trifluoromethyl)-4,7-dihydropyrazolo[1,5-a]pyrimidine-6-sulfonamide] had a Kv1.5% inhibition of 31%.

For `CCN(CC)S(=O)(=O)C1=C(C)Nc2cc(C(F)(F)F)nn2C1c1ccc(Cl)c(Cl)c1` (single isomer, unassigned) [Example 64 Isomer 1, 7-(3,4-Dichlorophenyl)-N,N-diethyl-5-methyl-2-(trifluoromethyl)-4,7-dihydropyrazolo[1,5-a]pyrimidine-6-sulfonamide], the inhibition at 0.3 µM came out at 76.2%.

Turning to `CCN(CC)S(=O)(=O)C1=C(C)Nc2cc(C(F)(F)F)nn2C1c1ccc(Cl)c(Cl)c1` (single isomer, unassigned) [Example 64 Isomer 2, 7-(3,4-Dichlorophenyl)-N,N-diethyl-5-methyl-2-(trifluoromethyl)-4,7-dihydropyrazolo[1,5-a]pyrimidine-6-sulfonamide], the Kv1.5% inhibition is 60%.

For `CC1=C(S(=O)(=O)N2CCCCC2)C(c2ccc(Cl)c(Cl)c2)n2nc(C(F)(F)F)cc2N1` (single isomer, unassigned) [Example 65 Isomer 1, 7-(3,4-Dichlorophenyl)-5-methyl-6-(piperidin-1-ylsulfonyl)-2-(trifluoromethyl)-4,7-dihydropyrazolo[1,5-a]pyrimidine], testing at 0.3 µM gave an inhibition of 81%.

In turn, `CC1=C(S(=O)(=O)N2CCCCC2)C(c2ccc(Cl)c(Cl)c2)n2nc(C(F)(F)F)cc2N1` (single isomer, unassigned) [Example 65 Isomer 2, 7-(3,4-Dichlorophenyl)-5-methyl-6-(piperidin-1-ylsulfonyl)-2-(trifluoromethyl)-4,7-dihydropyrazolo[1,5-a]pyrimidine] came in with a Kv1.5% inhibition of 78%.

Take `CC1=C(S(=O)(=O)N2CCOCC2)C(c2ccc(Cl)c(Cl)c2)n2nc(C(F)(F)F)cc2N1` (single isomer, unassigned) [Example 66 Isomer 1, 7-(3,4-Dichlorophenyl)-5-methyl-6-(morpholinosulfonyl)-2-(trifluoromethyl)-4,7-dihydropyrazolo[1,5-a]pyrimidine]: 0.3 µM produced 51% inhibition.

As for `CC1=C(S(=O)(=O)N2CCOCC2)C(c2ccc(Cl)c(Cl)c2)n2nc(C(F)(F)F)cc2N1` (single isomer, unassigned) [Example 66 Isomer 2, 7-(3,4-Dichlorophenyl)-5-methyl-6-(morpholinosulfonyl)-2-(trifluoromethyl)-4,7-dihydropyrazolo[1,5-a]pyrimidine], the Kv1.5% inhibition came to 49%.

On to `CC1=C(S(=O)(=O)N2CCCC2)C(c2ccc(Cl)cc2)n2nc(C(F)(F)F)cc2N1` (single isomer, unassigned) [Example 67 Isomer 1, 7-(4-Chlorophenyl)-5-methyl-6-(pyrrolidin-1-ylsulfonyl)-2-(trifluoromethyl)-4,7-dihydropyrazolo[1,5-a]pyrimidine], for which the inhibition at 0.3 µM was determined as 60%.

`CC1=C(S(=O)(=O)N2CCCC2)C(c2ccc(Cl)cc2)n2nc(C(F)(F)F)cc2N1` (single isomer, unassigned) [Example 67 Isomer 2, 7-(4-Chlorophenyl)-5-methyl-6-(pyrrolidin-1-ylsulfonyl)-2-(trifluoromethyl)-4,7-dihydropyrazolo[1,5-a]pyrimidine] showed a Kv1.5% inhibition of 54%.

Compound `CC1=C(S(=O)(=O)N2CCCC2)C(c2ccc(Cl)c(Cl)c2)n2nc(C)c(Cl)c2N1` (single isomer, unassigned) [Example 69 Isomer 1, 3-Chloro-7-(3,4-dichlorophenyl)-2,5-dimethyl-6-(pyrrolidin-1-ylsulfonyl)-4,7-dihydropyrazolo[1,5-a]pyrimidine] displayed an inhibition at 0.3 µM of 40%.

Turning to `CC1=C(S(=O)(=O)N2CCCC2)C(c2ccc(Cl)c(Cl)c2)n2nc(C)c(Cl)c2N1` (single isomer, unassigned) [Example 69 Isomer 2, 3-Chloro-7-(3,4-dichlorophenyl)-2,5-dimethyl-6-(pyrrolidin-1-ylsulfonyl)-4,7-dihydropyrazolo[1,5-a]pyrimidine], the Kv1.5% inhibition came to 40%.

With `CC1=C(C(=O)N(C)S(=O)(=O)c2ccccc2)C(c2ccc(Cl)c(Cl)c2)n2nc(C)cc2N1` (single isomer, unassigned) [Example 79 Isomer 1, 7-(3,4-Dichlorophenyl)-N,2,5-trimethyl-N-(phenylsulfonyl)-4,7-dihydropyrazolo[1,5-a]pyrimidine-6-carboxamide], the Kv1.5% inhibition is 25%.

Regarding `CC1=C(C(=O)N(C)S(=O)(=O)c2ccccc2)C(c2ccc(Cl)c(Cl)c2)n2nc(C)cc2N1` (single isomer, unassigned) [Example 79 Isomer 2, 7-(3,4-Dichlorophenyl)-N,2,5-trimethyl-N-(phenylsulfonyl)-4,7-dihydropyrazolo[1,5-a]pyrimidine-6-carboxamide], the Kv1.5% inhibition came to 88%.

As to `CC1=C(C(=O)N(C)S(=O)(=O)c2ccc(F)cc2)C(c2ccc(Cl)c(Cl)c2)n2nc(C)cc2N1` (single isomer, unassigned) [Example 80 Isomer 1, 7-(3,4-Dichlorophenyl)-N-(4-fluorophenylsulfonyl)-N,2,5-trimethyl-4,7-dihydropyrazolo[1,5-a]pyrimidine-6-carboxamide], the Kv1.5% inhibition amounted to 37%.

The compound `CC1=C(C(=O)N(C)S(=O)(=O)c2ccc(F)cc2)C(c2ccc(Cl)c(Cl)c2)n2nc(C)cc2N1` (single isomer, unassigned) [Example 80 Isomer 2, 7-(3,4-Dichlorophenyl)-N-(4-fluorophenylsulfonyl)-N,2,5-trimethyl-4,7-dihydropyrazolo[1,5-a]pyrimidine-6-carboxamide] yielded a Kv1.5% inhibition of 85%.

For `COc1ccc(S(=O)(=O)N(C)C(=O)C2=C(C)Nc3cc(C)nn3C2c2ccc(Cl)c(Cl)c2)cc1` (single isomer, unassigned) [Example 81 Isomer 1, 7-(3,4-Dichlorophenyl)-N-(4-methoxyphenylsulfonyl)-N,2,5-trimethyl-4,7-dihydropyrazolo[1,5-a]pyrimidine-6-carboxamide], 0.3 µM produced 16% inhibition.

`CC1=C(C(=O)N2CCCCS2(=O)=O)C(c2ccc(Cl)c(Cl)c2)n2nc(C)cc2N1` (single isomer, unassigned) [Example 84 Isomer 1] yielded a Kv1.5% inhibition of 19%.

`CC1=C(C(=O)N2CCCCS2(=O)=O)C(c2ccc(Cl)c(Cl)c2)n2nc(C)cc2N1` (single isomer, unassigned) [Example 84 Isomer 2]: the Kv1.5% inhibition is on record as 7%.

As to `CC1=C(C(=O)N(C)S(=O)(=O)c2ccccc2)C(c2ccc(Cl)c(Cl)c2)n2nc(C(F)(F)F)cc2N1` (single isomer, unassigned) [Example 90 Isomer 1, 7-(3,4-Dichlorophenyl)-N,5-dimethyl-N-(phenylsulfonyl)-2-(trifluoromethyl)-4,7-dihydropyrazolo[1,5-a]pyrimidine-6-carboxamide], the inhibition at 0.3 µM was found to be 37%.

The compound `CC1=C(C(=O)N(C)S(=O)(=O)c2ccccc2)C(c2ccc(Cl)c(Cl)c2)n2nc(C(F)(F)F)cc2N1` (single isomer, unassigned) [Example 90 Isomer 2, 7-(3,4-Dichlorophenyl)-N,5-dimethyl-N-(phenylsulfonyl)-2-(trifluoromethyl)-4,7-dihydropyrazolo[1,5-a]pyrimidine-6-carboxamide] gave a Kv1.5% inhibition of 51%.

The same test, now with this note: given as % inhibition, value given as a concentration in μM; read-out: Kv1.5% inhibition.
Take `COc1ccc(S(=O)(=O)N(C)C(=O)C2=C(C)Nc3cc(C)nn3C2c2ccc(Cl)c(Cl)c2)cc1` (single isomer, unassigned) [Example 81 Isomer 2, 7-(3,4-Dichlorophenyl)-N-(4-methoxyphenylsulfonyl)-N,2,5-trimethyl-4,7-dihydropyrazolo[1,5-a]pyrimidine-6-carboxamide]: the IC50 was found to be 0.098 µM.
